Patent US20240366623A1, “COMPOSITIONS FOR PREVENTING OR TREATING CHARCOT-MARIE-TOOTH DISEASE (CMT)” (Chong Kun Dang Pharmaceutical Corp., priority 2021, published 2024)

Columns and labels:
Type in all cases: in vivo, mouse
C3 CMT1A mice [1] = experiment: Analysis of muscle fiber atrophy (gastrocnemius) in C3 CMT1A mice
Protocol: (§1) Ten-week-old C3 CMT1A mice were provided with a standard diet (Central Lab Animal, Inc.) and water ad libitum and were housed in a controlled environment with a temperature of 22±2° C., a humidity of 44-56% and a 12-hour light-dark cycle. All experimental procedures were approved and performed according to the Institutional Animal Care and Use Committee (IACUC) of the Korea CKD Laboratory Animal Center (with an approved number: S-17_033).
Vehicle is 0.5% […] (MC), and each group was administered vehicle or compound 43 for seven weeks. TG or C3 refers to C3 CMT1A mice; a wild type (WT) is a group in which only vehicle is administered to normal mice; Vehicle(C3) or C3 group is a group in which only vehicle is administered to C3 CMT1A mice; and compound 43 is a group in which compound 43 is administered to C3 CMT1A mice with five animals in each group. […]
Mice were anesthetized with isoflurane and systemic perfusion through the heart was performed with saline solution (3 mL). […] The proportion of muscle fibers with atrophy was measured by dividing the number of muscle fibers with atrophy by the […], and the cross-sectional area of the muscle fibers was analyzed using NIS element software, and the results are shown in FIGS. 16 and 17.

C3 CMT1A mice [2] = experiment: Innervation of neuromuscular junctions (gastrocnemius) in C3 CMT1A mice
Protocol: as §1
Vehicle is 0.5% […] (MC), and each group was administered vehicle or compound 43 for seven weeks. […]
In addition, the section slide samples with at least 80 neuromuscular junctions per sample were divided into: fully innervation for a case in which patterns of having two antibodies positively stained are fully overlapped on the double staining with anti-synaptotagmin-2 and α-bungarotoxin; partially innervation for a case in which the patterns are partially overlapped; and denervation for a case in which no pattern is overlapped, and the each percentage value was calculated and the significance and graph of the results were analyzed and expressed through Prism 9, and are shown in FIG. 20.

C3 CMT1A mice [3] = experiment: Histopathologic evaluation of sural nerves in C3 CMT1A mice
Protocol: as §1
Vehicle is 0.5% […] (MC), and each group was administered vehicle or compound 43 for eight weeks. TG or C3 refers to C3 CMT1A mice; a wild type (WT) is a group in which only vehicle is administered to normal mice; Vehicle(C3) or C3 group is a group in which only vehicle is administered to C3 CMT1A mice; and compound 43 is a group in which compound 43 is administered to C3 CMT1A mice with five animals in each group.
At eight weeks after administering vehicle or drug (compound 43), the sural nerves were collected at 0.5 hours after the final drug administration and then fixed overnight in 2.5% glutaraldehyde solution. The fixed samples were subjected to general tissue processing for image analysis, sectioned with a thickness of […], and stained with toluidine blue. Histological evaluation was performed on imaging files taken with an optical microscopy. In each sample, morphological changes of myelin, such as demyelination, remyelination, etc., and pathological changes, including a reduction in axon diameter, were evaluated. The axon and myelin diameters were analyzed with Image J software and a G-ratio thereof was calculated as the ratio of an internal axon diameter to a total external diameter, and the results are shown in FIGS. 21 to 23.
Data were represented as mean±SEM. Statistical significance between groups was tested using one-way ANOVA and post hoc analysis was performed by Dunnett's test. All statistical analyses were performed with GraphPad Prism 9.0.

[4] = 10 mg/Kg PO BID eight weeks (FIG. 21)

O=C(N1CCS(=O)(=O)CC1)N(Cc1ccc(-c2nnc(C(F)F)o2)cn1)c1ccccc1 [Compound 43, N-((5-(5-(difluoromethyl)-1,3,4-oxadiazol-2-yl)pyridin-2-yl)methyl)-N-phenylthiomorpholine-4-carboxamide 1,1-dioxide]
proportion of atrophic muscle fibers (C3 CMT1A mice [1]; 10 mg/Kg PO BID seven weeks (FIG. 16)): lowered | cross-sectional area of muscle fibers (C3 CMT1A mice [1]; 10 mg/Kg PO BID seven weeks (FIG. 17)): increased | proportion of partially innervated NMJ and denervated NMJ (C3 CMT1A mice [2]; 10 mg/Kg PO BID seven weeks (FIG. 20)): remarkably decreased | fully innervated NMJ (C3 CMT1A mice [2]; 10 mg/Kg PO BID seven weeks (FIGS. 19 and 20)): increased | axon diameter (sural nerve) (C3 CMT1A mice [3]; [4]): increased | myelin sheath thickness (sural nerve) (C3 CMT1A mice [3]; [4]): increased | slope of g-ratio (sural nerve) (C3 CMT1A mice [3]; 10 mg/Kg PO BID eight weeks (FIG. 22)): lower slope than that of vehicle-treated animals | proportion of axons with a large diameter (sural nerve) (C3 CMT1A mice [3]; 10 mg/Kg PO BID eight weeks (FIG. 23)): tendency to increase
